# In patent US20060069132A1, “Azolecarboxamide herbicides” (priority 2004, published 2006):
# Tests used:
# kochia = test: Test C pre-/postemergence herbicide test; format: in vivo, Kochia scoparia; conditions: for Kochia plant response rating: 500 g ai/ha
# Procedure, shortened: (§1)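 Preemergence: seeds planted and treated with compound in non-phytotoxic solvent with surfactant; postemergence: plants at 2 to 18 cm (1- to 4-leaf stage) sprayed likewise. Kept in greenhouse 12 to 14 days, then visually rated against controls, 0 (no effect) to 100 (complete control).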
# redroot pigweed = test: Test A pre-/postemergence herbicide test; format: in vivo, Amaranthus retroflexus
# Procedure, shortened: (§2)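 Sandy loam soil given preemergence directed spray; plants at 2 to 10 cm, one- to two-leaf stage, sprayed to runoff postemergence, compounds in non-phytotoxic solvent with surfactant. Injury rated visually versus untreated controls after about ten greenhouse days, 0 (no effect) to 100 (complete control); dash means not tested.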
# large crabgrass = test: Test A pre-/postemergence herbicide test; format: in vivo, Digitaria sanguinalis
# Procedure, shortened: as §2
# johnsongrass = test: Test C pre-/postemergence herbicide test; format: in vivo, Sorghum halepense; conditions: for Johnsongrass plant response rating: 500 g ai/ha
# Procedure, shortened: as §1
# chickweed = test: Test C postemergence herbicide test; format: in vivo, Stellaria media; conditions: for Chickweed plant response rating: 500 g ai/ha
# Procedure, shortened: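 Scoring by eye, 12–14 days post-treatment, greenhouse-held plants vs. controls; 0 no effect, 100 complete control. Sprayed at 1–4 leaves (2–18 cm); paddy barnyardgrass at 2 leaves, flooded.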
# giant foxtail [1] = test: Test C pre-/postemergence herbicide test; format: in vivo, Setaria faberi; conditions: for Foxtail, Giant plant response rating: 500 g ai/ha
# Procedure, shortened: as §1
# giant foxtail [2] = test: Test A pre-/postemergence herbicide test; format: in vivo, Setaria faberi
# Procedure, shortened: as §2
# yellow nutsedge = test: Test C pre-/postemergence herbicide test; format: in vivo, Cyperus esculentus; conditions: for Nutsedge, Yellow plant response rating: 500 g ai/ha
# Procedure, shortened: as §1
# Surinam grass = test: Test C pre-/postemergence herbicide test; format: in vivo, Urochloa decumbens; conditions: for Surinam Grass plant response rating: 500 g ai/ha
# Procedure, shortened: as §1
# [3] = Postemergence, 250 g ai/ha, scale 0 to 100, 0 no effect, 100 complete control
# [4] = postemergence, 125 g ai/ha, scale 0 to 100
# [5] = postemergence, 62 g ai/ha, scale 0 to 100
# [6] = Postemergence, 500 g ai/ha, 0 to 100 scale, 0 no effect, 100 complete control
# [7] = Postemergence, 2000 g ai/ha, 0 to 100 scale, 0 no effect, 100 complete control
# [8] = Preemergence, 500 g ai/ha, visual rating, 0 to 100 scale (0 no effect, 100 complete control)
# [9] = Preemergence, 2000 g ai/ha, 0 to 100 scale, 0 no effect, 100 complete control
# [10] = 31 g ai/ha, preemergence, scale 0 to 100
# [11] = 125 g ai/ha, scale 0 (no effect) to 100 (complete control), visual, 12 to 14 days, preemergence
# [12] = Preemergence, 2000 g ai/ha, visual rating, 0 to 100 scale (0 no effect, 100 complete control)
# [13] = 250 g ai/ha, scale 0 to 100 (0 no effect, 100 complete control), visual, 12 to 14 days, preemergence
# [14] = Preemergence, scale 0 to 100, 0 no effect, 100 complete control
smiles,measurement,setting,value
CCCCOC(=O)c1cccc(NC(=O)c2cc(C(C)(C)C)nn2CC)c1 [Compound 86],Kochia plant response rating,"kochia; Postemergence, scale 0 to 100",95
same,"Plant response rating, Kochia",kochia; [3],95
same,"Plant response rating, Kochia",kochia; [4],85
same,"Plant response rating, Kochia",kochia; [5],80
same,Pigweed plant response rating,redroot pigweed; [6],55
same,"Plant response rating, Pigweed",redroot pigweed; [7],95
same,Pigweed plant response rating,redroot pigweed; [8],0
same,Pigweed plant response rating,redroot pigweed; [9],55
same,"Crabgrass, Large plant response rating",large crabgrass; [6],20
same,"Plant response rating, Crabgrass, Large",large crabgrass; [7],25
same,"Crabgrass, Large plant response rating",large crabgrass; [8],0
same,"Crabgrass, Large plant response rating",large crabgrass; [9],0
same,Johnsongrass plant response rating,"johnsongrass; Postemergence, scale 0 to 100",30
same,"Plant response rating, Johnsongrass",johnsongrass; [3],10
same,"Plant response rating, Johnsongrass",johnsongrass; [5],10
same,Chickweed plant response rating,"chickweed; Postemergence, scale 0 to 100",100
same,"Plant response rating, Chickweed",chickweed; [3],100
same,"Plant response rating, Chickweed",chickweed; [4],100
same,"Plant response rating, Chickweed",chickweed; [5],100
same,"Foxtail, Giant plant response rating","giant foxtail [1]; Postemergence, scale 0 to 100",70
same,"Plant response rating, Foxtail, Giant",giant foxtail [1]; [3],50
same,"Plant response rating, Foxtail, Giant",giant foxtail [1]; [4],20
same,"Plant response rating, Foxtail, Giant",giant foxtail [1]; [5],10
same,"Foxtail, Giant plant response rating",giant foxtail [2]; [6],20
same,"Plant response rating, Foxtail, Giant",giant foxtail [2]; [7],20
same,"Foxtail, Giant plant response rating",giant foxtail [2]; [8],0
same,"Foxtail, Giant plant response rating",giant foxtail [2]; [9],0
same,"Nutsedge, Yellow plant response rating","yellow nutsedge; Postemergence, scale 0 to 100",30
same,"Plant response rating, Nutsedge, Yellow",yellow nutsedge; [3],10
same,"Plant response rating, Nutsedge, Yellow",yellow nutsedge; [4],5
same,"Plant response rating, Nutsedge, Yellow",yellow nutsedge; [5],0
same,Surinam Grass plant response rating,"Surinam grass; Postemergence, scale 0 to 100",85
same,"Plant response rating, Surinam Grass",Surinam grass; [3],70
same,"Plant response rating, Surinam Grass",Surinam grass; [4],60
same,"Plant response rating, Surinam Grass",Surinam grass; [5],10
C=Cn1nc(C(C)(C)C)cc1C(=O)Nc1cccc(C(C)=NO)c1 [Compound 114],"Plant response rating, Kochia",kochia; [10],90
same,"Plant response rating (0 = no effect, 100 = complete control), Kochia","kochia; 62 g ai/ha, preemergence",90
same,"Plant response rating, Kochia",kochia; [11],90
same,"Plant response rating, Kochia",kochia; [3],100
same,"Plant response rating, Kochia",kochia; [4],80
same,"Plant response rating, Kochia",kochia; [5],80
same,Pigweed plant response rating,redroot pigweed; [6],85
same,"Plant response rating, Pigweed",redroot pigweed; [7],100
same,Pigweed plant response rating,redroot pigweed; [8],85
same,Pigweed plant response rating,redroot pigweed; [12],90
same,"Crabgrass, Large plant response rating",large crabgrass; [6],40
same,"Plant response rating, Crabgrass, Large",large crabgrass; [7],60
same,"Crabgrass, Large plant response rating",large crabgrass; [8],40
same,"Crabgrass, Large plant response rating",large crabgrass; [12],85
same,"Plant response rating, Johnsongrass",johnsongrass; [10],0
same,"Plant response rating (0 = no effect, 100 = complete control), Johnsongrass","johnsongrass; 62 g ai/ha, preemergence",20
same,"Plant response rating, Johnsongrass",johnsongrass; [11],30
same,"Plant response rating, Johnsongrass",johnsongrass; [3],70
same,"Plant response rating, Johnsongrass",johnsongrass; [4],70
same,"Plant response rating, Johnsongrass",johnsongrass; [5],70
same,"Plant response rating, Chickweed",chickweed; [3],100
same,"Plant response rating, Chickweed","chickweed; postemergence, 31 g ai/ha, scale 0 to 100",80
same,"Plant response rating, Chickweed",chickweed; [5],100
same,"Plant response rating, Foxtail, Giant",giant foxtail [1]; [10],20
same,"Plant response rating (0 = no effect, 100 = complete control), Foxtail, Giant","giant foxtail [1]; 62 g ai/ha, preemergence",20
same,"Plant response rating, Foxtail, Giant",giant foxtail [1]; [11],30
same,"Plant response rating, Foxtail, Giant",giant foxtail [1]; [13],40
same,"Plant response rating, Foxtail, Giant",giant foxtail [1]; [3],10
same,"Plant response rating, Foxtail, Giant",giant foxtail [1]; [5],10
same,"Foxtail, Giant plant response rating",giant foxtail [2]; [6],50
same,"Plant response rating, Foxtail, Giant",giant foxtail [2]; [7],55
same,"Foxtail, Giant plant response rating",giant foxtail [2]; [8],30
same,"Foxtail, Giant plant response rating",giant foxtail [2]; [12],45
same,"Plant response rating, Nutsedge, Yellow",yellow nutsedge; [10],0
same,"Plant response rating (0 = no effect, 100 = complete control), Nutsedge, Yellow","yellow nutsedge; 62 g ai/ha, preemergence",0
same,"Plant response rating, Nutsedge, Yellow",yellow nutsedge; [11],0
same,"Plant response rating, Nutsedge, Yellow",yellow nutsedge; [3],10
same,"Plant response rating, Nutsedge, Yellow",yellow nutsedge; [4],0
same,"Plant response rating, Nutsedge, Yellow",yellow nutsedge; [5],0
same,"Plant response rating, Surinam Grass",Surinam grass; [10],10
same,"Plant response rating (0 = no effect, 100 = complete control), Surinam Grass","Surinam grass; 62 g ai/ha, preemergence",10
same,"Plant response rating, Surinam Grass",Surinam grass; [11],10
same,"Plant response rating, Surinam Grass",Surinam grass; [3],20
same,"Plant response rating, Surinam Grass",Surinam grass; [4],10
same,"Plant response rating, Surinam Grass",Surinam grass; [5],10
CCn1nc(C(C)(C)C)cc1C(=O)Nc1cccc(SC(F)(F)F)c1 [Compound 130],"Plant response rating (0 = no effect, 100 = complete control), Kochia","kochia; 62 g ai/ha, preemergence",0
same,"Plant response rating, Kochia",kochia; [11],0
same,Kochia plant response rating,"kochia; Postemergence, scale 0 to 100",85
same,"Plant response rating, Kochia",kochia; [3],70
same,Kochia plant response rating,kochia; [14],100
same,"Plant response rating, Kochia",kochia; [4],30
same,Pigweed plant response rating,redroot pigweed; [6],50
same,"Plant response rating, Pigweed",redroot pigweed; [7],65
same,Pigweed plant response rating,redroot pigweed; [12],65
same,Pigweed plant response rating,"redroot pigweed; preemergence, 500 g ai/ha, visual injury, 0 to 100 scale (0 no effect, 100 complete control)",35
same,"Crabgrass, Large plant response rating",large crabgrass; [6],20
same,"Plant response rating, Crabgrass, Large",large crabgrass; [7],20
same,"Crabgrass, Large plant response rating",large crabgrass; [8],45
same,"Crabgrass, Large plant response rating",large crabgrass; [12],60
same,Johnsongrass plant response rating,"johnsongrass; Postemergence, scale 0 to 100",40
same,"Plant response rating, Johnsongrass",johnsongrass; [3],30
same,Johnsongrass plant response rating,johnsongrass; [14],80
same,"Plant response rating, Johnsongrass",johnsongrass; [4],10
same,Chickweed plant response rating,"chickweed; Postemergence, scale 0 to 100",100
same,"Plant response rating, Chickweed",chickweed; [3],100
same,"Plant response rating, Chickweed",chickweed; [4],100
same,"Plant response rating (0 = no effect, 100 = complete control), Foxtail, Giant","giant foxtail [1]; 62 g ai/ha, preemergence",40
same,"Plant response rating, Foxtail, Giant",giant foxtail [1]; [11],45
same,"Plant response rating, Foxtail, Giant",giant foxtail [1]; [13],65
same,"Foxtail, Giant plant response rating","giant foxtail [1]; Postemergence, scale 0 to 100",30
same,"Plant response rating, Foxtail, Giant",giant foxtail [1]; [3],15
same,"Foxtail, Giant plant response rating",giant foxtail [1]; [14],95
same,"Plant response rating, Foxtail, Giant",giant foxtail [1]; [4],10
same,"Foxtail, Giant plant response rating",giant foxtail [2]; [6],10
same,"Plant response rating, Foxtail, Giant",giant foxtail [2]; [7],10
same,"Foxtail, Giant plant response rating",giant foxtail [2]; [8],50
same,"Foxtail, Giant plant response rating",giant foxtail [2]; [12],55
same,"Plant response rating (0 = no effect, 100 = complete control), Nutsedge, Yellow","yellow nutsedge; 62 g ai/ha, preemergence",0
same,"Plant response rating, Nutsedge, Yellow",yellow nutsedge; [11],0
same,"Nutsedge, Yellow plant response rating","yellow nutsedge; Postemergence, scale 0 to 100",0
same,"Plant response rating, Nutsedge, Yellow",yellow nutsedge; [3],0
same,"Nutsedge, Yellow plant response rating",yellow nutsedge; [14],0
same,"Plant response rating, Nutsedge, Yellow",yellow nutsedge; [4],0
same,"Plant response rating (0 = no effect, 100 = complete control), Surinam Grass","Surinam grass; 62 g ai/ha, preemergence",5
same,"Plant response rating, Surinam Grass",Surinam grass; [11],5
same,Surinam Grass plant response rating,"Surinam grass; Postemergence, scale 0 to 100",60
same,"Plant response rating, Surinam Grass",Surinam grass; [3],30
same,Surinam Grass plant response rating,Surinam grass; [14],60
same,"Plant response rating, Surinam Grass",Surinam grass; [4],10
